Experimental data: ChEMBL document CHEMBL3612018, “Discovery of a Potent and Selective ROMK Inhibitor with Pharmacokinetic Properties Suitable for Preclinical Evaluation” (ACS Med Chem Lett, 2015)

Columns and labels:
in vivo [1] = settings: Sprague-Dawley, rat, po, 2 mg/kg
in vivo [2] = settings: Sprague-Dawley, rat
Rattus norvegicus [3] = organism: Rattus norvegicus; settings: in vivo, po, 2 mg/kg
Rattus norvegicus [4] = organism: Rattus norvegicus; settings: in vivo, iv, 1 mg/kg
in vivo [5] = settings: Sprague-Dawley, rat; remark: listed apart in the source
Rattus norvegicus [6] = organism: Rattus norvegicus; settings: in vivo, iv, 0.5 mg/kg

Compound	bioavailability (in vivo [1]) [%]	half-life (in vivo [2]) [h]	AUC/dose (Rattus norvegicus [3]) [µM·kg·h/mg]	half-life (in vivo [5]) [h]	clearance (Rattus norvegicus [6]) [mL/min/kg]	clearance (Rattus norvegicus [4]) [mL/min/kg]
Cc1nc(C(O)CN2CCN(C[C@H](O)c3ccc4c(c3C)COC4=O)CC2)ccc1C#N (stereo in doubt; 35)	81	1.4	1.3			25
O=C1OCc2cc(CCN3CCN(C(=O)Cc4ccc(-n5cnnn5)cc4)CC3)ccc21			0.34			40
COc1cc(CCN2CCN(CC(O)c3ccc4c(c3C)COC4=O)CC2)ccc1C#N (stereo not drawn)	39		0.46	0.83	33	

The next lines start with results.

bioavailability (in vivo [1]) [%]	half-life (in vivo [2]) [h]	AUC/dose (Rattus norvegicus [3]) [µM·kg·h/mg]	half-life (in vivo [5]) [h]	clearance (Rattus norvegicus [6]) [mL/min/kg]	Compound	clearance (Rattus norvegicus [4]) [mL/min/kg]
37		0.35	1.3	40	COc1cc(C(O)CN2CCN(CCc3ccc4c(c3C)COC4=O)CC2)ccc1C#N (stereo not drawn)	
78		0.74	1.5	40	COc1cc(C(O)CN2CCN(CCc3ccc4c(c3C)COC4=O)CC2)ncc1C#N (stereo not drawn)	
